From patent US6967196B1, “Sulfonamide compounds and uses thereof” (Bristol-Myers Squibb Company, priority 1999, dated 2005)
Where two headings read alike, the source gives them in different places.

Tested on: amyloid β production in transfected H4 (human neuroglioma) cells stably expressing APP constructs
Experiment: In vitro cell-based assay of inhibitors of amyloid β production (ELISA)
Settings: transfected H4 cells stably expressing APP, amyloid β in medium by ELISA, read-out: ACTIVITY (IC50, inhibition of amyloid β production)
Summary of the method: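 Test agents are screened at 10-100 μM for about 16 hours on cells stably expressing wild-type or variant APP. Secreted Aβ is measured by ELISA and compared with control-treated cells.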

[1] = approximately 16 hours incubation
[2] = approximately 16 hours incubation, Table B

Row | Substance | IC50 (approx. 16 h incubation) | further results
1 | N-{2-[2-(1-{[(4-chlorophenyl)sulfonyl]-2,5-difluoroanilino}ethyl)phenoxy]ethyl}-N-ethyl-2-(2-thienyl)acetamide [Example 705] | 100 to 500 nM | –
2 | N-{2-[2-(1-{[(4-chlorophenyl)sulfonyl]-2,5-difluoroanilino}ethyl)phenoxy]ethyl}-N-ethyl-3-methylbutanamide [Example 694] | 100 to 500 nM | –
3 | N-{2-[2-(1-{[(4-chlorophenyl)sulfonyl]-2,5-difluoroanilino}ethyl)phenoxy]ethyl}-N-ethylacrylamide [Example 949] | – | IC50 [1]: > 500 nM
4 | N-{2-[2-(1-{[(4-chlorophenyl)sulfonyl]-2,5-difluoroanilino}ethyl)phenoxy]ethyl}-N-ethylbutanamide [Example 646] | 100 to 500 nM | –
5 | N-{2-[2-(1-{[(4-chlorophenyl)sulfonyl]-2,5-difluoroanilino}ethyl)phenoxy]ethyl}-N-ethylcyclopentanecarboxamide [Example 721] | 100 to 500 nM | –
6 | N-{2-[2-(1-{[(4-chlorophenyl)sulfonyl]-2,5-difluoroanilino}ethyl)phenoxy]ethyl}-N-ethylpropanamide [Example 504] | – | IC50 [2]: 100 to 500 nM
7 | N-{2-[2-(1-{[(4-chlorophenyl)sulfonyl]-2,5-difluoroanilino}ethyl)phenoxy]ethyl}-N-ethyltetradecanamide [Example 928] | – | IC50 [1]: > 500 nM
8 | N-{2-[2-(1-{[(4-chlorophenyl)sulfonyl]-2,5-difluoroanilino}ethyl)phenoxy]ethyl}-N-methylcyclohexanecarboxamide [Example 511] | – | IC50 [2]: 100 to 500 nM
9 | N-{2-[2-(1-{[(4-chlorophenyl)sulfonyl]-2,5-difluoroanilino}ethyl)phenoxy]ethyl}-N-methylpentanamide [Example 664] | 100 to 500 nM | –
10 | N-{2-[2-(1-{[(4-chlorophenyl)sulfonyl]-2,5-difluoroanilino}ethyl)phenoxy]ethyl}-N-methyltetradecanamide [Example 854] | – | IC50 [1]: 100 to 500 nM
11 | N-{2-[2-(1-{[(4-chlorophenyl)sulfonyl]-2,5-difluoroanilino}ethyl)phenoxy}ethyl}-N-ethyl-3-methyl-2-butenamide [Example 642] | 100 to 500 nM | –
12 | N-{3-[2-(1-{3-[2-(1-{[(4-chlorophenyl)sulfonyl]-2,5-difluoroanilino}ethyl)phenoxy]butyl}-2-cyclohexyl-N-methylacetamide [Example 686] | 100 to 500 nM | –
13 | N-{3-[2-(1-{[(4-chlorophenyl)sulfonyl]-2,5-difluoroanilino}ethyl)phenoxy]butyl}-3-cyclopentyl-N-methylpropanamide [Example 712] | 100 to 500 nM | –
14 | N-{3-[2-(1-{[(4-chlorophenyl)sulfonyl]-2,5-difluoroanilino}ethyl)phenoxy]butyl}-N-ethyl-2-furamide [Example 708] | 100 to 500 nM | –
15 | N-{3-[2-(1-{[(4-chlorophenyl)sulfonyl]-2,5-difluoroanilino}ethyl)phenoxy]ethyl}-N-methyl-2-(trifluoromethyl)benzamide [Example 697] | 100 to 500 nM | –
16 | N-{3-[2-(1-{[(4-chlorophenyl)sulfonyl]-2,5-difluoroanilino}ethyl)phenoxy]ethyl}-N-methyl-3,5-bis(trifluoromethyl)benzamide [Example 931] | – | IC50 [1]: > 500 nM
17 | N-{3-[2-(1-{[(4-chlorophenyl)sulfonyl]-2,5-difluoroanilino}ethyl)phenoxy]propyl}-2,2-diphenylacetamide [Example 784] | 100 to 500 nM | –
18 | N-{3-[2-(1-{[(4-chlorophenyl)sulfonyl]-2,5-difluoroanilino}ethyl)phenoxy]propyl}-2,3,4,5 tetrafluorobenzamide [Example 863] | – | IC50 [1]: 100 to 500 nM
19 | N-{3-[2-(1-{[(4-chlorophenyl)sulfonyl]-2,5-difluoroanilino}ethyl)phenoxy]propyl}-2,3,4,5,6-pentafluoro-N-methylbenzamide [Example 828] | – | IC50 [1]: 100 to 500 nM
20 | N-{3-[2-(1-{[(4-chlorophenyl)sulfonyl]-2,5-difluoroanilino}ethyl)phenoxy]propyl}-2,3,4,5,6-pentafluorobenzamide [Example 742] | 100 to 500 nM | –
21 | N-{3-[2-(1-{[(4-chlorophenyl)sulfonyl]-2,5-difluoroanilino}ethyl)phenoxy]propyl}-2,3,4,5-tetrafluoro-N-methylbenzamide [Example 778] | 100 to 500 nM | –
22 | N-{3-[2-(1-{[(4-chlorophenyl)sulfonyl]-2,5-difluoroanilino}ethyl)phenoxy]propyl}-2,3,4-trifluoro-N-methylbenzamide [Example 670] | 100 to 500 nM | –
23 | N-{3-[2-(1-{[(4-chlorophenyl)sulfonyl]-2,5-difluoroanilino}ethyl)phenoxy]propyl}-2,4,5-trifluoro-N-methylbenzamide [Example 710] | 100 to 500 nM | –
24 | N-{3-[2-(1-{[(4-chlorophenyl)sulfonyl]-2,5-difluoroanilino}ethyl)phenoxy]propyl}-2,4-dimethoxy-N-methylbenzamide [Example 753] | 100 to 500 nM | –

Row | Substance | IC50 (approx. 16 h incubation) | further results
25 | N-{3-[2-(1-{[(4-chlorophenyl)sulfonyl]-2,5-difluoroanilino}ethyl)phenoxy]propyl}-2,5-bis(trifluoromethyl)benzamide [Example 736] | 100 to 500 nM | –
26 | N-{3-[2-(1-{[(4-chlorophenyl)sulfonyl]-2,5-difluoroanilino}ethyl)phenoxy]propyl}-2,5-difluoro-N-methylbenzamide [Example 727] | 100 to 500 nM | –
27 | N-{3-[2-(1-{[(4-chlorophenyl)sulfonyl]-2,5-difluoroanilino}ethyl)phenoxy]propyl}-2,6-difluoro-N-methylbenzamide [Example 755] | 100 to 500 nM | –
28 | N-{3-[2-(1-{[(4-chlorophenyl)sulfonyl]-2,5-difluoroanilino}ethyl)phenoxy]propyl}-2-naphthamide [Example 808] | – | IC50 [1]: 100 to 500 nM
29 | N-{3-[2-(1-{[(4-chlorophenyl)sulfonyl]-2,5-difluoroanilino}ethyl)phenoxy]propyl}-2-phenylcyclopropanecarboxamide [Example 789] | 100 to 500 nM | –
30 | N-{3-[2-(1-{[(4-chlorophenyl)sulfonyl]-2,5-difluoroanilino}ethyl)phenoxy]propyl}-3,4,5-trimethoxybenzamide [Example 651] | 100 to 500 nM | –
31 | N-{3-[2-(1-{[(4-chlorophenyl)sulfonyl]-2,5-difluoroanilino}ethyl)phenoxy]propyl}-3,4-dimethoxy-N-methylbenzamide [Example 643] | 100 to 500 nM | –
32 | N-{3-[2-(1-{[(4-chlorophenyl)sulfonyl]-2,5-difluoroanilino}ethyl)phenoxy]propyl}-3,5-difluorobenzamide [Example 815] | – | IC50 [1]: 100 to 500 nM
33 | N-{3-[2-(1-{[(4-chlorophenyl)sulfonyl]-2,5-difluoroanilino}ethyl)phenoxy]propyl}-3,5-dimethoxy-N-methylbenzamide [Example 802] | 100 to 500 nM | –
34 | N-{3-[2-(1-{[(4-chlorophenyl)sulfonyl]-2,5-difluoroanilino}ethyl)phenoxy]propyl}-3-fluoro-N-methylbenzamide [Example 699] | 100 to 500 nM | –
35 | N-{3-[2-(1-{[(4-chlorophenyl)sulfonyl]-2,5-difluoroanilino}ethyl)phenoxy]propyl}-3-methoxy-N-methylbenzamide [Example 786] | 100 to 500 nM | –
36 | N-{3-[2-(1-{[(4-chlorophenyl)sulfonyl]-2,5-difluoroanilino}ethyl)phenoxy]propyl}-3-methoxybenzamide [Example 690] | 100 to 500 nM | –
37 | N-{3-[2-(1-{[(4-chlorophenyl)sulfonyl]-2,5-difluoroanilino}ethyl)phenoxy]propyl}-3-nitrobenzamide [Example 723] | 100 to 500 nM | –
38 | N-{3-[2-(1-{[(4-chlorophenyl)sulfonyl]-2,5-difluoroanilino}ethyl)phenoxy]propyl}-4-(trifluoromethoxy)benzamide [Example 920] | – | IC50 [1]: > 500 nM
39 | N-{3-[2-(1-{[(4-chlorophenyl)sulfonyl]-2,5-difluoroanilino}ethyl)phenoxy]propyl}-4-fluoro-N-methylbenzamide [Example 654] | 100 to 500 nM | –
40 | N-{3-[2-(1-{[(4-chlorophenyl)sulfonyl]-2,5-difluoroanilino}ethyl)phenoxy]propyl}-4-fluorobenzamide [Example 679] | 100 to 500 nM | –
41 | N-{3-[2-(1-{[(4-chlorophenyl)sulfonyl]-2,5-difluoroanilino}ethyl)phenoxy]propyl}-4-iodo-N-methylbenzamide [Example 719] | 100 to 500 nM | –
42 | N-{3-[2-(1-{[(4-chlorophenyl)sulfonyl]-2,5-difluoroanilino}ethyl)phenoxy]propyl}-4-iodobenzamide [Example 824] | – | IC50 [1]: 100 to 500 nM
43 | N-{3-[2-(1-{[(4-chlorophenyl)sulfonyl]-2,5-difluoroanilino}ethyl)phenoxy]propyl}-4-methoxy-N-methylbenzamide [Example 652] | 100 to 500 nM | –
44 | N-{3-[2-(1-{[(4-chlorophenyl)sulfonyl]-2,5-difluoroanilino}ethyl)phenoxy]propyl}-4-methoxybenzamide [Example 819] | – | IC50 [1]: 100 to 500 nM
45 | N-{3-[2-(1-{[(4-chlorophenyl)sulfonyl]-2,5-difluoroanilino}ethyl)phenoxy]propyl}-4-methylbenzamide [Example 707] | 100 to 500 nM | –
46 | N-{3-[2-(1-{[(4-chlorophenyl)sulfonyl]-2,5-difluoroanilino}ethyl)phenoxy]propyl}-4-nitrobenzamide [Example 805] | 100 to 500 nM | –
47 | N-{3-[2-(1-{[(4-chlorophenyl)sulfonyl]-2,5-difluoroanilino}ethyl)phenoxy]propyl}-N,2-dimethylbenzamide [Example 693] | 100 to 500 nM | –
